Data taken from patent US7071168B2, “Anti-cancer compounds and methods related thereto” (The Regents of the University of Colorado, priority 1998, dated 2006).

Key:
SCLC strain SHP-77 = assay: Colorimetric tetrazolium (MTT) assay for cell survival, SCLC strain SHP-77; format: cell-based, human
Method in brief: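 MTT assay: cells seeded overnight, treated in triplicate across a concentration range for 4 days at 37 °C, 5% CO2. On day 5, MTT was added for 4 h; formazan was dissolved in acidified isopropanol and absorbance read.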

[1] = test system: bradykinin response of isolated guinea pig ileum; assay: Anti-bradykinin activity on isolated guinea pig ileum
Method in brief: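 Bradykinin concentration-effect curves were run in the absence and presence of compound. Tissue: 25 mm terminal ileum from male Hartley guinea pigs fasted overnight, held at 1 g tension in O2/CO2-bubbled Krebs' solution after 1 h equilibration.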

[2] = isolated guinea pig ileum, pD2 of bradykinin is 7.4, higher numbers indicate higher potency
[3] = Table 1, higher numbers indicate higher potency

Molecule	MTT: ED50 for killing of SCLC strain SHP-77 in vitro (SCLC strain SHP-77; SCLC strain SHP-77 in vitro)	GPI: pA2 for bradykinin antagonist activity on isolated guinea pig ileum [1, 2]	MTT: ED50 for killing of SCLC strain SHP-77 in vitro (SCLC strain SHP-77; Table 1, SHP-77, MTT, 4 days)	GPI: pA2 for bradykinin antagonist activity on isolated guinea pig ileum [1, 3]	also measured
CC1(C)CC(NC(=O)[C@H](Cc2ccc3ccccc3c2)NC(=N)CCCCCCCCCCCCC(=N)N[C@@H](Cc2ccc3ccccc3c2)C(=O)NC2CC(C)(C)NC(C)(C)C2)CC(C)(C)N1 [M254-1]	5 µM	5.1			
DDD-(DArg-Arg-Aud-DTic-hPhe-Arg)2 [M770]			8 µM	Inact	
CC1(C)CC(NC(=O)[C@H](Cc2ccc3ccccc3c2)NC(=N)CCCCCCCCCCCCC(=N)N[C@@H](Cc2ccc3ccccc3c2)C(=O)NC2CC(C)(C)NC(C)(C)C2)CC(C)(C)N1 [M254]	5 µM	5.1			
SUB-(DArg-Arg-Eac-Ser-DF5f-Nc7G-Arg)2 [M1024]			14 µM	7.2	
F5c-MBC-Arg [M528]			Inact	Inact	
F5c-DArg-Arg-Aud-Ser-D5F5-Oic-Arg [M888]			12.5 µM	6.6	
CC1(C)CC(NC(=O)[C@@H](N)Cc2ccc3ccccc3c2)CC(C)(C)N1 [M218]	Inact	4.8			
CN(C(=O)[C@H](Cc1ccc(OCc2c(Cl)cccc2Cl)cc1)NC(=O)c1nc(Cl)c(Cl)c(N)c1Cl)C1CC(C)(C)NC(C)(C)C1 [M632]	1.4 µM	5.4			
COc1cc(C=CC(=O)N[C@@H](Cc2ccc3ccccc3c2)C(=O)NC2CC(C)(C)NC(C)(C)C2)cc(OC)c1O [M274]	36 µM	4.7			
DDD-(DArg-2Nal-Arg)2 [M508]			23 µM	Inact	
CC1=C(CC(=O)NC(Cc2ccc3ccccc3c2)C(=O)NC2CC(C)(C)NC(C)(C)C2)c2cc(F)ccc2C1=Cc1ccc([S+](C)[O-])cc1 (centres unmarked) [M656]	13 µM	5.4			
CC1(C)CC(NC(=O)Cc2ccc(NC(=NC3CCCCC3)NC3CCCCC3)cc2)CC(C)(C)N1 [M266]	42 µM	4.8			
F5c-PaF(Ppa)-Arg [M720]			Inact	4.8	
F5c-DArg-Arg-Eac-Ser-DIgl-Oic-Arg [M852]			Inact	5.9	
CC1=C(CC(=O)NC2CC(C)(C)NC(C)(C)C2)c2cc(F)ccc2C1=Cc1ccc([S+](C)[O-])cc1 (centres unmarked) [M654]	Inact	4.5			
F5c-F5F-Arg [M810]			40 µM	4.6	
CC1(C)CC(NC(=O)[C@H](Cc2csc3ccccc23)NC(=N)CCCCCCCCCCCCC(=N)N[C@@H](Cc2csc3ccccc23)C(=O)NC2CC(C)(C)NC(C)(C)C2)CC(C)(C)N1 [M436-2]	4.5 µM	5.8			
c[DArg-Arg-Add-Ser-DIgl-PFF-Arg] [M882]					MTT: ED50 for killing of SCLC strain SHP-77 in vitro (SCLC strain SHP-77; Table 3, cyclic peptides): 4.5 µM; GPI: pA2 for bradykinin antagonist activity on isolated guinea pig ileum ([1]; Table 3, cyclic peptides): Inact
DDD-(Pac-hPhe-Arg)2 [M746]			Inact	Inact	

Molecule	MTT: ED50 for killing of SCLC strain SHP-77 in vitro (SCLC strain SHP-77; SCLC strain SHP-77 in vitro)	GPI: pA2 for bradykinin antagonist activity on isolated guinea pig ileum [1, 2]	MTT: ED50 for killing of SCLC strain SHP-77 in vitro (SCLC strain SHP-77; Table 1, SHP-77, MTT, 4 days)	GPI: pA2 for bradykinin antagonist activity on isolated guinea pig ileum [1, 3]	also measured
c[Bala-DArg-Arg-Eac-Ser-DF5F-Oic-Arg] [M910]					MTT: ED50 for killing of SCLC strain SHP-77 in vitro (SCLC strain SHP-77; Table 3, cyclic peptides): 42 µM; GPI: pA2 for bradykinin antagonist activity on isolated guinea pig ileum ([1]; Table 3, cyclic peptides): 5.2
CN(C(=O)C(Cc1ccc(OCc2c(Cl)cccc2Cl)cc1)NC(=O)C=Cc1ccccc1)C1CC(C)(C)NC(C)(C)C1 (centres unmarked) [M628]	1.6 µM	5.2			
DDD-(p-ABz-hPhe-Arg)2 [M552]			Inact	Inact	
DArg-Arg-Pro-Hyp-Gly-Igl-Ser-DIgl-Oic-Arg-NH2 [B10062]			Inact	7.1	
CC1CN(C(=O)[C@H](Cc2ccc3ccccc3c2)NC(=N)CCCCCCCCCCCCC(=N)N[C@@H](Cc2ccc3ccccc3c2)C(=O)N2CC(C)OC(C)C2)CC(C)O1 (some centres unmarked) [M304]	4.2 µM	5.9			
CC1(C)CC(NC(=O)C(Cc2ccc3ccccc3c2)NC(=O)OC(C)(C)C)CC(C)(C)N1 (centres unmarked) [M288A]	>85 µM	5.2			
F5c-DArg-Arg-Aud-Ser-DIgl-Oic-Arg [M856]			21 µM	5.4	
DDD-(DArg-Arg-Eac-Ser-DIgl-Oic-Arg)2 [M854]			7.3 µM	5.9	
Cc1cc(NC(=O)C(Cc2ccc3ccccc3c2)NC(=O)C=Cc2c(F)c(F)c(F)c(F)c2F)c2ccccc2n1 (centres unmarked) [M314]	25 µM	4.6			
DDD-(Lys-Ser-DF5F-Oic-Arg)2 [M808]			30 µM	6.9	
CN(C(=O)C(Cc1cc(I)c(OCc2c(Cl)cccc2Cl)c(I)c1)NC(=O)C=Cc1c(F)c(F)c(F)c(F)c1F)C1CC(C)(C)NC(C)(C)C1 (centres unmarked) [M664]	1.2 µM	5.0			
CC1(C)CC(NC(=O)[C@H](Cc2c(F)c(F)c(F)c(F)c2F)NC(=NC2CCCCC2)NC2CCCCC2)CC(C)(C)N1 [M240]	32 µM	5.1			
CC1(C)CC(NC(=O)C(Cc2ccc3ccccc3c2)NC(=O)C=Cc2ccc(C(F)(F)F)cc2)CC(C)(C)N1 (centres unmarked) [M312]	3.2 µM	5.5			
CN(C)c1ccc(C=CC(=O)NC(Cc2ccc(OCc3c(Cl)cccc3Cl)cc2)C(=O)N(C)C2CC(C)(C)NC(C)(C)C2)cc1.O=C(O)C(F)(F)F (centres unmarked) [M630, Dmac-OC2Y-Matp.TFA]	1.6 µM	5.0			
F5c-Lys-Ser-DF5F-Oic-Arg [M802]			Inact	6.3	
TDIM-(DArg-Arg-Pro-Hyp-Gly-Igl-Ser-DIgl-Oic-Arg)2 [B10100-2]			1 µM	8.0	
F5c-DArg-Eac-hPhe-Arg [M738]			Inact	5.3	
DDD-(Eac-Eac-Arg-DIgl-Oic-Arg)2 [B10200]			16 µM	5.8	
